Results reported in patent EP4741389A1, “KAT6 INHIBITOR” (Shanghai Qilu Pharmaceutical Research and Development …, priority 2023, dated 2025).

Tests used:
KAT6A = biological target: T1, KAT6A (Homo sapiens, UniProt Q92794); test: KATs acetyltransferase enzyme activity assay (TR-FRET), KAT6A; format: biochemical; details: Biotin-H3 (1-21) and AcCOA, 90 minutes at room temperature
T1 construct: purchased Active Motif 81223

KAT6B = biological target: T2, KAT6B (Homo sapiens, UniProt Q8WYB5); test: KATs acetyltransferase enzyme activity assay (TR-FRET), KAT6B; format: biochemical; details: Biotin-H3 (1-21) and AcCOA, 90 minutes at room temperature
T2 construct: purchased Active Motif 81224
T2 sequence (Q8WYB5 whole entry): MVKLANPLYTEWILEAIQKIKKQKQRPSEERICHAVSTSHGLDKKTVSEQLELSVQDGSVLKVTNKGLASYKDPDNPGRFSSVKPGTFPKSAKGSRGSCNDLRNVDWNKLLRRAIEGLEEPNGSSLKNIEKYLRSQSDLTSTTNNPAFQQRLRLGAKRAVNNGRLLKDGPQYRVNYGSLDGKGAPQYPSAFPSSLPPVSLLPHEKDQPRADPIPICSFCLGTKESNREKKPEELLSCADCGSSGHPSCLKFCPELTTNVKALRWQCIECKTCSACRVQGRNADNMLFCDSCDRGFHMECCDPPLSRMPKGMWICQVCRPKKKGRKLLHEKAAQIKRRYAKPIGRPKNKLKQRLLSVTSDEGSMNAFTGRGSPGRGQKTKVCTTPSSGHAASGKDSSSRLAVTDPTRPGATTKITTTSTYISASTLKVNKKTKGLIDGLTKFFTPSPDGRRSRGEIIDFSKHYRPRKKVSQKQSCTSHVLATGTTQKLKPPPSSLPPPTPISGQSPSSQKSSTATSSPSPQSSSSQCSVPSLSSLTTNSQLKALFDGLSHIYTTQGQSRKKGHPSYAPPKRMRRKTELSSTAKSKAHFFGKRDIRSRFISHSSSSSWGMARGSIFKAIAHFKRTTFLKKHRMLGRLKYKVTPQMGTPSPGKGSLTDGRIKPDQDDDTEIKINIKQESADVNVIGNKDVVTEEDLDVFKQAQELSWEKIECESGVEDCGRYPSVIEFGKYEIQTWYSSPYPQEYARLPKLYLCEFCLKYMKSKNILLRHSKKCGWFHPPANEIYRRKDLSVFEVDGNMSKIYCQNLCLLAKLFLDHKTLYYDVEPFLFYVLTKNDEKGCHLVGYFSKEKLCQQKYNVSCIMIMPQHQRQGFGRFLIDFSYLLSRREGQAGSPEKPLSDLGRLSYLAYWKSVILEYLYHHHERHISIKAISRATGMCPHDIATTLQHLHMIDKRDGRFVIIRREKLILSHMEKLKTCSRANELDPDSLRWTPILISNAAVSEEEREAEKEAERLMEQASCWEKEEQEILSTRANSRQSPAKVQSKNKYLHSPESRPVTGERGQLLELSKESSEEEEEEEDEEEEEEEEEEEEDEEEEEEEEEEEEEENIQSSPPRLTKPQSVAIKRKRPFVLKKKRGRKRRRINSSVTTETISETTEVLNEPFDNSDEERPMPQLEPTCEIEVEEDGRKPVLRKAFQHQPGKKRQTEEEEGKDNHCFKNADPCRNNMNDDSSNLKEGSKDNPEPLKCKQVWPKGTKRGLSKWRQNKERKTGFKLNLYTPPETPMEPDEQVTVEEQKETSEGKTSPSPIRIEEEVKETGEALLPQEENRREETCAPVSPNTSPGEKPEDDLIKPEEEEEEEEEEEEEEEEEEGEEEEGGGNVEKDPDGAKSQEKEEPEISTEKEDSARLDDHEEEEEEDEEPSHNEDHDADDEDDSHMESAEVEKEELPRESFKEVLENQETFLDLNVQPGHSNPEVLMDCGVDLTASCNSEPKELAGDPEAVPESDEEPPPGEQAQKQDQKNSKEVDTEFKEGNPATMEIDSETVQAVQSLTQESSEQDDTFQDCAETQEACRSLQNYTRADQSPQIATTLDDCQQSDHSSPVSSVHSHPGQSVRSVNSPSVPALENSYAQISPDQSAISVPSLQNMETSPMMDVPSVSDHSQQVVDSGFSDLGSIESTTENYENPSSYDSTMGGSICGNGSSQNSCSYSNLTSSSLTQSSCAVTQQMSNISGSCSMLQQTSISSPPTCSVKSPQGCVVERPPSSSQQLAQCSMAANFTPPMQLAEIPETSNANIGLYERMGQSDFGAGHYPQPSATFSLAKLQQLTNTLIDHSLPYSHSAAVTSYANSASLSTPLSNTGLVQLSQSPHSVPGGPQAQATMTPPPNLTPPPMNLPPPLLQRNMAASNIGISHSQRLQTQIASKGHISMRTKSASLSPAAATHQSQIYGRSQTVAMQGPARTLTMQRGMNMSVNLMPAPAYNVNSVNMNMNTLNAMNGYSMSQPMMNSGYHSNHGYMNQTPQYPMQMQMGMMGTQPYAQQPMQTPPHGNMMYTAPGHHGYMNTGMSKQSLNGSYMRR
Procedure, shortened: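 TR-FRET assay in Tris-HCl buffer: enzyme preincubated with compound 15 min at room temperature, then biotin-H3(1-21) peptide and acetyl-CoA added for 90 min at room temperature. Acetylation detected with Eu-anti-acetyl-histone H4 lysine antibody and ULight-streptavidin (60 min), 665/620 nm ratio; IC50 from four-parameter logistic fit.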

[1] = test system: human breast cancer ZR-75-1 cell xenografts; test: In vivo efficacy study in BALB/c nude mouse model with subcutaneous ZR-75-1 xenografts; details: for T/C / TGI / Tumor Volume: 0.3 mg/kg; for T/C / TGI: based on tumor volume on day 21 post-administration; for Tumor Volume: day 21 post-administration, female BALB/c nude mice, 7 per group
Source text: IV. In vivo efficacy study of test drug Compound 2, Compound 5-P2, Compound 3, and Compound A in a BALB/c nude mouse model with subcutaneously implanted human breast cancer ZR-75-1 cell xenografts
The objective of this experiment is to evaluate the in vivo efficacy of the test drug Compound 2, Compound 5-P2, Compound 3, and Compound A in a BALB/c nude mouse model with subcutaneously implanted human breast cancer ZR-75-1 cell xenografts.
(§1) • Species: Mouse; • Strain: BALB/c nude mice; • Age and weight: 6-8 weeks old, weighing 19-26 grams; • Gender: Female; • Supplier: GemPharmatech Co., Ltd.; • Compound source: Compound A: [drawing 190] prepared with reference to patent CN114364672A.
Human breast cancer ZR-75-1 (ATCC, CRL-1500) cells were cultured in vitro as adherent cultures. The culture conditions were: 1640 medium supplemented with 10 vol% FBS, 100 U/mL penicillin, and 100 µg/mL streptomycin, incubated in a 37°C, 5% CO2 cell culture incubator. Routine passaging was performed twice a week. When cell confluence reached 80%-90% and the cell number met the requirements, cells were harvested, counted, and inoculated.
Three days before cell implantation, a 17β-estrogen pellet (0.36 mg) was implanted into the left dorsal side of each mouse. Starting one week after pellet implantation, animals were urinated 2-3 times per week. If necessary, animals were urinated daily.
(§2) A mixture containing 10×10^6 ZR-75-1 cells in 100 µL PBS and 100 µL Matrigel (final volume was 200 µL) was subcutaneously implanted into the right dorsal side (upper side) of each mouse. On day 18 after cell implantation, when the average tumor volume reached 138 mm^3, grouping and administration were initiated. Mice with tumor volumes ranging from 100 to 212 mm^3 were selected for the study. Mice were randomly assigned to groups based on body weight and tumor volume, with 7 mice per group. The day of grouping was designated as PG-D0, and administration for all groups started from PG-D0.
The experimental index is to investigate whether tumor growth is inhibited, delayed, or cured. Tumor diameters were measured three times per week using a vernier caliper. Tumor volume was calculated using the formula: V = 0.5a × b^2, where a and b represent the major and minor diameters of the tumor, respectively.
The anti-tumor efficacy of the compounds was evaluated using TGI (%) or the relative tumor proliferation rate T/C (%). TGI (%), reflects the tumor growth inhibition rate. TGI (%) was calculated as: TGI (%) = [1 - (Mean tumor volume of a treatment group at the end of administration - Mean tumor volume of the same treatment group at the start of administration) / (Mean tumor volume of the vehicle control group at the end of treatment - Mean tumor volume of the vehicle control group at the start of treatment)] × 100%.
Relative Tumor Proliferation Rate T/C (%): The calculation formula is as follows: T/C% = TRTV / CRTV ×100 % (TRTV: RTV of the treatment group; CRTV: RTV of the negative control group). The relative tumor volume (RTV) was calculated based on tumor measurement results using the formula RTV = Vt /V0, where V0 is the tumor volume of each mouse measured at the start of grouping and administration (i.e., d0), and Vt is the tumor volume of each mouse at a specific measurement time. The mean value for each group was then calculated. V0 and Vt correspond to tumor volume data from the same mouse.

[2] = Body weight changes and tolerability in the ZR-75-1 xenograft study; format: in vivo, Mouse; details: result in words; for body weight changes: differences among the groups, FIG. 1
Experimental: as §1, §2
The effects of the test drugs Compound 2, Compound 5-P2, Compound 3, and Compound A on the body weight of the female BALB/c nude mouse model with subcutaneously implanted human breast cancer ZR-75-1 cell xenografts are shown in FIG. 1.

T1 sequence (Q92794 488-778 limits assumed): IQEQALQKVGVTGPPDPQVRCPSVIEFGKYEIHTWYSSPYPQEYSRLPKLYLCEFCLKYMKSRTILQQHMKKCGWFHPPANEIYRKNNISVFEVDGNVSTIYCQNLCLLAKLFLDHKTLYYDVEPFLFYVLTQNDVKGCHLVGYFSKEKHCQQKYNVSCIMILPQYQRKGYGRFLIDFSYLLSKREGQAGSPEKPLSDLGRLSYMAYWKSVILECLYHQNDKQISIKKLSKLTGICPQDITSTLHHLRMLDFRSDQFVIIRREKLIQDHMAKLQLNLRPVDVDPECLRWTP

Compound | IC50 (KAT6A) [nM] | IC50 (KAT6B) [nM] | T/C [1] [%] | TGI [1] [%] | Tumor Volume [1] [mm^3] | anti-tumor effects ([1]; ZR-75-1 xenograft model, tumor growth curves FIG. 2, result in words) | body weight changes [2] | tolerability in tumor-bearing mice ([2]; human breast cancer ZR-75-1 model)
COc1ccc2c(c1S(=O)(=O)Nc1noc3cc(Cn4cccn4)cc(OC)c13)OCC21CC1 [Compound 3, N-(6-((1H-Pyrazol-1-yl)methyl)-4-methoxybenzo[d]isoxazol-3-yl)-6-methoxy-2H-spiro[benzofuran-3,1'-cyclopropane]-7-sulfonamide] | 1.8 | 7.5 | 12.95 | 104.47 | 106 ± 12 | more significant anti-tumor effects compared to Compound A | not significant | tolerated
COc1ccccc1S(=O)(=O)Nc1noc2cc(Cn3cccn3)cc(OC)c12 [Compound A, reference compound] |  |  | 33.17 | 80.40 | 278 ± 44 |  | not significant | 
